This passage reports IC50 results from ChEMBL document CHEMBL4304757, “Synthetic heterocyclic candidates as promising α-glucosidase inhibitors: An overview” (Eur J Med Chem, 2019).

This test is described as follows: Inhibition of yeast alpha-glucosidase using p-nitrophenyl-alpha-d-glucopyranoside as substrate preincubated for 10 mins followed by substrate addition measured after 30 mins. Also noted: species or system Saccharomyces cerevisiae.
For orientation: IC50 means the concentration needed to halve the response being measured. Low values mean greater potency, high ones weaker potency. As to `Cc1cc2nc(-c3ccc(C(=O)N/N=C/c4cccc(F)c4)cc3)[nH]c2cc1C`, the IC50 was 8.4 to 179 µM.

The compound `Cc1ccc(-n2c(-c3cn(-c4ccccc4)nc3-c3cc4cc(Br)ccc4oc3=O)nc(-c3ccccc3)c2-c2ccccc2)cc1` displayed an IC50 of 2.5 to 46 µM.

`Cc1cc2nc(-c3ccc(C(=O)NNC(=S)Nc4ccc(C(F)(F)F)cc4)cc3)[nH]c2cc1C` came in with an IC50 of 35 to 297 µM.

As for `COc1ccc(-n2c(-c3cn(-c4ccccc4)nc3-c3cc4cc(Br)ccc4oc3=O)nc(-c3ccccc3)c2-c2ccccc2)cc1`, the concentration for half-maximal inhibition (IC50) lay within 2.5 to 46 µM.

Consider `Cc1cc2nc(-c3ccc(C(=O)N/N=C/c4ccc(O)c(Br)c4)cc3)[nH]c2cc1C`, for which the half-maximal inhibitory concentration (IC50) was in the range of 8.4 to 179 µM.

In turn, `Cc1nn(-c2ccc([N+](=O)[O-])cc2)c(C)c1-c1nc(-c2ccccc2)c(-c2ccccc2)[nH]1` displayed an IC50 of 2.7 to 23 µM.

On to `COc1cccc(NC(=S)NNC(=O)c2ccc(-c3nc4cc(C)c(C)cc4[nH]3)cc2)c1`, for which the IC50 is 35 to 297 µM.

As for `Cc1cc2nc(-c3ccc(C(=O)N/N=C/c4ccco4)cc3)[nH]c2cc1C`, the IC50 is 8.4 to 179 µM.

In the case of `Cc1cc(C)cc(-n2c(-c3cn(-c4ccccc4)nc3-c3cc4cc(Br)ccc4oc3=O)nc(-c3ccccc3)c2-c2ccccc2)c1`, the 50% inhibitory concentration (IC50) is 2.5 to 46 µM.

In turn, `Brc1ccc(-c2nn(-c3ccccc3)cc2-c2nc(-c3ccccc3)c(-c3ccccc3)[nH]2)cc1` registered an IC50 of 2.7 to 23 µM.

As for `Cc1cc2nc(-c3ccc(C(=O)N/N=C/c4ccccc4C)cc3)[nH]c2cc1C`, the IC50 is 8.4 to 179 µM.

`COc1ccc(/C=N/NC(=O)c2ccc(-c3nc4cc(C)c(C)cc4[nH]3)cc2)cc1` showed an IC50 of 8.4 to 179 µM.

Turning to `Cc1cc2nc(-c3ccc(C(=O)NNC(=S)Nc4ccccc4Cl)cc3)[nH]c2cc1C`, the IC50 fell in the range of 35 to 297 µM.

With `Cc1nn(-c2ccc(Nc3cccc(Cl)c3)nn2)c(C)c1[N+](=O)[O-]`, the IC50 was 19 µM.

As for `Cc1cc2nc(-c3ccc(C(=O)N/N=C/c4ccccc4O)cc3)[nH]c2cc1C`, the IC50 lay within 8.4 to 179 µM.

`Cc1cc2nc(-c3ccc(C(=O)NNC(=S)Nc4ccccc4F)cc3)[nH]c2cc1C`: the IC50 fell in the range of 35 to 297 µM.

For `Cc1ccc(/C=N/NC(=O)c2ccc(-c3nc4cc(C)c(C)cc4[nH]3)cc2)cc1`, the IC50 was in the range of 8.4 to 179 µM.

Compound `Cc1cc2nc(-c3ccc(C(=O)N/N=C/c4cccc(Cl)c4)cc3)[nH]c2cc1C` had an IC50 of 8.4 to 179 µM.

In turn, `Cc1cc2nc(-c3ccc(C(=O)N/N=C/c4ccc(O)cc4)cc3)[nH]c2cc1C` gave a half-maximal inhibitory concentration (IC50) of 8.4 to 179 µM.

Consider `O=[N+]([O-])c1cccc(-c2nn(-c3ccccc3)cc2-c2nc(-c3ccccc3)c(-c3ccccc3)[nH]2)c1`, for which the IC50 was in the range of 2.7 to 23 µM.

Take `O=[N+]([O-])c1ccc(-n2cc(-c3nc(-c4ccccc4)c(-c4ccccc4)[nH]3)c(-c3ccccc3)n2)cc1`: the IC50 was in the range of 2.7 to 23 µM.

Compound `COc1ccc(/C=N/NC(=O)c2ccc(-c3nc4cc(C)c(C)cc4[nH]3)cc2)cc1OC` returned an IC50 of 8.4 to 179 µM.

For the compound `O=c1oc2ccc(Br)cc2cc1-c1nn(-c2ccccc2)cc1-c1nc(-c2ccccc2)c(-c2ccccc2)n1-c1ccc(Cl)cc1`, the IC50 is 2.5 µM.

Regarding `COc1ccc(O)c(/C=N/NC(=O)c2ccc(-c3nc4cc(C)c(C)cc4[nH]3)cc2)c1`, the IC50 was in the range of 8.4 to 9.9 µM.

In turn, `O=c1oc2ccc(Br)cc2cc1-c1nn(-c2ccccc2)cc1-c1nc(-c2ccccc2)c(-c2ccccc2)[nH]1` came in with an IC50 of 2.7 to 23 µM.

Take `c1ccc(-c2ccc(-c3nn(-c4ccccc4)cc3-c3nc(-c4ccccc4)c(-c4ccccc4)[nH]3)cc2)cc1`: the IC50 is 2.7 to 23 µM.

The compound `O=c1oc2ccccc2cc1-c1nn(-c2ccccc2)cc1-c1nc(-c2ccccc2)c(-c2ccccc2)n1-c1ccc(Br)cc1` yielded an IC50 of 2.5 to 46 µM.

For `Cc1cc2nc(-c3ccc(C(=O)NNC(=S)Nc4cccc(Br)c4)cc3)[nH]c2cc1C`, the IC50 lay within 35 to 297 µM.

Consider `Cc1cc2nc(-c3ccc(C(=O)N/N=C/c4ccc(O)cc4O)cc3)[nH]c2cc1C`, for which the half-inhibitory concentration (IC50) fell in the range of 8.4 to 9.9 µM.

Compound `Cc1cc2nc(-c3ccc(C(=O)N/N=C/c4ccc(Cl)cc4)cc3)[nH]c2cc1C` registered an IC50 of 8.4 to 179 µM.

With `Cc1cc2nc(-c3ccc(C(=O)N/N=C/c4cccc(O)c4)cc3)[nH]c2cc1C`, the IC50 lay in the range of 8.4 to 179 µM.
